Measured values: paper PMC11070402, “New antiproliferative 3-substituted oxindoles inhibiting EGFR/VEGFR-2 and tubulin polymerization” (Molecular Diversity, 2023)
Values joined by “and” are separate entries in the source; they are usually repeats but may differ in a detail not shown here. Identical values can stand only once. Like-named read-outs stand apart in the source and are kept apart here.

Key:
[1] = tested on: MCF-7 (human breast cancer); test: Cytotoxicity versus MCF-7 cell line (MTT assay); settings: MCF7, read-out: MCF-7 (IC50 ± SD, uM)
[2] = tested on: Human Skin Fibroblasts (HSF) cells; test: Margin of safety: cytotoxicity on human skin fibroblasts (SRB assay); format: cell-based
Procedure: Cell viability was assessed via SRB assay. Aliquots of 100 µl cell suspension (5 × 10^3 cells) were in 96-well plates and incubated in a complete media for 24 h. […] After 72 h of drug exposure, cells were fixed by replacing media with 150 µl of 10% TCA and incubated at 4 °C for 1 h. The TCA solution was removed, and the cells were washed 5 times with distilled water. Aliquots of […] SRB solution (0.4 w/v) were added and incubated in a dark place at room temperature for 10 min. Plates were washed 3 times with 1% acetic acid and allowed to air-dry overnight. Then, 150 µl of TRIS (10 mM) was added to dissolve the protein-bound SRB stain; the absorbance was measured at 540 nm using a BMG LAB TECH®-FLUO star Omega microplate reader (Ortenberg, Germany).

[3] = tested on: tubulin; set-up: method as in PMID 34832895; settings: read-out: IC50 tubulin assembly; cited from earlier work
[4] = tested on: tubulin; test: Tubulin polymerization inhibition assay; format: biochemical
[5] = tested on: tubulin; set-up: method as in PMID 33038796; settings: read-out: tubulin polymerization IC50; cited from earlier work
[6] = tested on: MOLT-4; test: NCI one-dose assay, MOLT-4; format: cell-based; settings: Homo sapiens; MOLT-4 (Leukemia), 10 uM single dose; read-out: Growth inhibition %
Procedure: (§1) All novel scaffolds 6a–j were carefully selected by the National Cancer Institute (NCI), Bethesda, USA, to elucidate their cytotoxic activity versus 60 human cancer cell lines at 10 µM as a single-dose concentration after a 48 h incubation period.
(§2) National Cancer Institution selected all the synthesized 6a–j (NCI), Bethesda, USA, for in vitro one-dose antitumor assay. The methodology protocol for the NCI anticancer screening was reported in detail elsewhere (http://www.dtp.nci.nih.gov). The anticancer assay was performed in full NCI 60 cell lines extracted from nine tumor cell lines, including leukemia, melanoma, lung, colon, CNS, ovarian, renal, prostate, and breast cancer cell lines.

[7] = tested on: K-562; test: NCI one-dose assay, K-562; format: cell-based; settings: Homo sapiens, K562; K-562 (Leukemia), 10 uM single dose; read-out: Growth inhibition %
Procedure: as §1, §2

[8] = tested on: MCF-7; test: NCI one-dose assay, MCF-7; format: cell-based, human; settings: Homo sapiens, MCF7, MCF7 (Breast Cancer), 10 uM single dose; read-out: Growth inhibition %
Procedure: as §1, §2

[9] = tested on: SNB-75 cells (CNS cancer cell line); test: NCI one-dose assay, SNB-75; format: cell-based; settings: Homo sapiens; SNB-75 (CNS Cancer), 10 uM single dose; read-out: Growth inhibition %
Procedure: as §1, §2

[10] = tested on: HOP-92 (non-small cell lung cancer cell line); test: NCI one-dose assay, HOP-92; format: cell-based; settings: Homo sapiens; HOP-92 (Non-Small Cell Lung Cancer), 10 uM single dose; read-out: Growth inhibition %
Procedure: as §1, §2

[11] = tested on: NCI/ADR-RES (ovarian cancer cell line); test: NCI one-dose assay, NCI/ADR-RES; format: cell-based; settings: Homo sapiens; NCI/ADR-RES; 10 µM single dose, 48 h incubation; read-out: cell growth inhibition % (GI %)
Procedure: as §1, §2

[12] = tested on: SK-MEL-5; test: NCI one-dose assay, SK-MEL-5; format: cell-based; settings: Homo sapiens; SK-MEL-5 (Melanoma), 10 uM single dose; read-out: Growth inhibition %
Procedure: as §1, §2

[13] = tested on: T-47D; test: NCI one-dose assay, T-47D; format: cell-based; settings: Homo sapiens, T47D; T-47D (Breast Cancer), 10 uM single dose; read-out: Growth inhibition %
Procedure: as §1, §2

[14] = tested on: 60 human cancer cell lines; test: NCI one-dose assay against sixty NCI cancer cell lines; format: cell-based
Procedure: as §1, §2

[15] = tested on: SR; test: NCI one-dose assay, SR; format: cell-based; settings: Homo sapiens; SR (Leukemia), 10 uM single dose; read-out: Growth inhibition %
Procedure: as §1, §2

[16] = tested on: UO-31; test: NCI one-dose assay, UO-31; format: cell-based; settings: Homo sapiens; UO-31 (Renal Cancer), 10 uM single dose; read-out: Growth inhibition %
Procedure: as §1, §2

[17] = tested on: EGFR (L858R); set-up: method as in PMID 29758406; settings: read-out: IC50 against EGFR (L858R); cited from earlier work
[18] = tested on: c-MET; set-up: method as in PMID 29758406; settings: read-out: IC50 against c-MET; cited from earlier work
[19] = tested on: EGFR (T790M); set-up: method as in PMID 29758406; settings: read-out: IC50 against EGFR (T790M); cited from earlier work
[20] = tested on: VEGFR-2; settings: cited from earlier work
[21] = biological target: EGFR^WT kinase; set-up: method as in PMID 34798457; settings: cited from earlier work
[22] = tested on: EGFR^L858R/T790M; set-up: method as in PMID 34798457; settings: cited from earlier work
[23] = biological target: T1, EGFR (Homo sapiens, UniProt P00533); set-up: method as in PMID 34832895; settings: cited from earlier work
T1 construct: purchased
T1 sequence (P00533 25-1210): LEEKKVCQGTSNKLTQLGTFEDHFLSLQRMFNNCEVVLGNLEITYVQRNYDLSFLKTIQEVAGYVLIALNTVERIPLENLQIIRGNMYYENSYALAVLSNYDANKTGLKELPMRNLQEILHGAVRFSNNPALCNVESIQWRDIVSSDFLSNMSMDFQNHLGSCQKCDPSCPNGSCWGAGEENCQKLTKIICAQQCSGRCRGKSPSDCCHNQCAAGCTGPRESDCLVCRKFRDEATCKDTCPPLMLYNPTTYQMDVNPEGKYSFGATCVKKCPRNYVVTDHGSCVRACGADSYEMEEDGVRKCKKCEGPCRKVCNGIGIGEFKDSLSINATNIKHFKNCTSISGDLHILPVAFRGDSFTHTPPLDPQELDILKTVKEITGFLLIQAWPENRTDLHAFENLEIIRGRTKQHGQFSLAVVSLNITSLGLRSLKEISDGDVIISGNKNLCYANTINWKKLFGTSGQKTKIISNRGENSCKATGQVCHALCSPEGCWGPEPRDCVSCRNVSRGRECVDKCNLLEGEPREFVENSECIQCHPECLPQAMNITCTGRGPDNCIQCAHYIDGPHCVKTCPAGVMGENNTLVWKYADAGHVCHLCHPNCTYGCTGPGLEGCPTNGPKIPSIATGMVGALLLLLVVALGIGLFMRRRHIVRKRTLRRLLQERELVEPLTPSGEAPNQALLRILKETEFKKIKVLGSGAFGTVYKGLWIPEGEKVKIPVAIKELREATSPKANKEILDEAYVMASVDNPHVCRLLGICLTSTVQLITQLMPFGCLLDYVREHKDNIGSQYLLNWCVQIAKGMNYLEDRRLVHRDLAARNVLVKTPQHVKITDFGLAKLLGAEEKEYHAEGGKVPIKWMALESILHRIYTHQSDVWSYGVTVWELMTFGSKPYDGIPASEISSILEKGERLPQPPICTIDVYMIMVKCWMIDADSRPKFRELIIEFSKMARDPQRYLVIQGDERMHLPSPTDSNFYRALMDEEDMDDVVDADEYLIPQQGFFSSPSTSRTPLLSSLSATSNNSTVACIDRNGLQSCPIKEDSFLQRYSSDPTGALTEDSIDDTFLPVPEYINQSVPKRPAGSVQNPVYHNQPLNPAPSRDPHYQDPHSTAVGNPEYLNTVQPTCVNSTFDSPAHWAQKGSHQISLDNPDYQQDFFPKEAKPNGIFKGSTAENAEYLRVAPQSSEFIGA

[24] = biological target: colchicine-binding site; set-up: method as in PMID 34649064; settings: read-out: competitive inhibition at the colchicine-binding site IC50; cited from earlier work
[25] = tested on: tubulin; set-up: method as in doi:10.1016/j.molstruc.2022.132345; settings: read-out: anti-tubulin activity IC50; cited from earlier work

O=c1[nH]cc(F)c(=O)[nH]1 [5FU, 5-fluorouracil, reference compound]
IC50 [1]: 2.02 ± 0.17 µM | IC50 ([2]; HSF, Human Skin Fibroblasts, SRB assay, 72 h exposure, read-out: HSF (IC50 ± SD)): 5450 ± 20 nM | SI (selectivity index) ([2]; SI = IC50 for HSF / IC50 for MCF-7 cells): 2.70

COc1ccc(/C=C\c2cc(OC)c(OC)c(OC)c2)cc1O [CA-4, combretastatin A4]
IC50 [3]: […] | %inh Tub ([4]; conc 0.1 (uM printed only in the CA-4 head)): […] | %inh Tub ([4]; conc 1 (uM printed only in the CA-4 head)): […] | %inh Tub ([4]; conc 10 (uM printed only in the CA-4 head)): […] | %inh Tub ([4]; conc 100 (uM printed only in the CA-4 head)): […] | IC50 ([4]; read-out: Tubulin polymerization inhibition (IC50 ± SD)): […] | IC50 [5]: 2500 nM

COc1ccc(C(=O)COc2ccc(C=C3C(=O)Nc4ccccc43)cc2)cc1 [Compound 6h, 3-{4-[2-(4-Methoxyphenyl)-2-oxoethoxy]benzylidene}indolin-2-one]
inhibition at 10 µM [6]: 34.3% | inhibition at 10 µM [7]: 39.7% | inhibition at 10 µM [8]: 41.3% | inhibition at 10 µM [9]: 23.6% | inhibition at 10 µM [10]: 11.7% | inhibition at 10 µM [11]: 43.7% | inhibition at 10 µM [12]: 17.8% | inhibition at 10 µM [13]: 26.4% | inhibition at 10 µM ([14]; BT-549 (Breast Cancer), 10 uM single dose, read-out: Growth inhibition %): 10.1% | inhibition at 10 µM ([14]; CAKI-1 (Renal Cancer), 10 uM single dose, read-out: Growth inhibition %): 26.4% | inhibition at 10 µM ([14]; CCRF-CEM (Leukemia), 10 uM single dose, read-out: Growth inhibition %): 14% | inhibition at 10 µM ([14]; HCT-15 (Colon Cancer), 10 uM single dose, read-out: Growth inhibition %): 15.2% | inhibition at 10 µM ([14]; HCT-116 (Colon Cancer), 10 uM single dose, read-out: Growth inhibition %): 25.4% | inhibition at 10 µM ([14]; HL-60(TB) (Leukemia), 10 uM single dose, read-out: Growth inhibition %): 20.8% | inhibition at 10 µM ([14]; HS 578T (Breast Cancer), 10 uM single dose, read-out: Growth inhibition %): 11.3% | inhibition at 10 µM ([14]; IGROV-1, IGROV1 (Ovarian Cancer), 10 uM single dose, read-out: Growth inhibition %): 23.7% | inhibition at 10 µM ([14]; M14 (Melanoma), 10 uM single dose, read-out: Growth inhibition %): 12.1% | inhibition at 10 µM ([14]; MDA-MB-231, read-out: Growth inhibition %): 10.8% | inhibition at 10 µM ([14]; NCI-H226 (Non-Small Cell Lung Cancer), 10 uM single dose, read-out: Growth inhibition %): 15.4% | inhibition at 10 µM ([14]; NCI-H522 (Non-Small Cell Lung Cancer), 10 uM single dose, read-out: Growth inhibition %): 17.2% | inhibition at 10 µM ([14]; OVCAR-3 (Ovarian Cancer), 10 uM single dose, read-out: Growth inhibition %): 18.3% | inhibition at 10 µM ([14]; OVCAR-8 (Ovarian Cancer), 10 uM single dose, read-out: Growth inhibition %): 15.9% | inhibition at 10 µM ([14]; PC-3 (Prostate Cancer), 10 uM single dose, read-out: Growth inhibition %): 36.1% | inhibition at 10 µM ([14]; RPMI-8226 (Leukemia), 10 uM single dose, read-out: Growth inhibition %): 25.4% | inhibition at 10 µM ([14]; SF-539 (CNS Cancer), 10 uM single dose, read-out: Growth inhibition %): 10.7% | inhibition at 10 µM ([14]; SK-OV-3 (Ovarian Cancer), 10 uM single dose, read-out: Growth inhibition %): 14.1% | inhibition at 10 µM ([14]; UACC-62 (Melanoma), 10 uM single dose, read-out: Growth inhibition %): 31.5% | melting point: 192 to 194 °C | inhibition at 10 µM [15]: 19.2% | inhibition at 10 µM [16]: 37.5%

CC(C)c1ccc(Cn2cc(-c3cc(-c4ccc(Br)cc4)nc(N)n3)c3ccccc32)cc1 [IV]
IC50 [17]: 99 nM | IC50 [18]: 595 nM | IC50 [19]: 94 nM

c1nc(Nc2ccc(N3CCOCC3)cc2)cc(Nc2ccc3[nH]ccc3c2)n1 [VIII]
IC50 ([20]; read-out: IC50 against VEGFR-2): 1200 nM

Cc1ccc(Nc2cc(Oc3ccc4[nH]ccc4c3)ncn2)cc1S(N)(=O)=O [VII]
IC50 ([20]; read-out: IC50 versus VEGFR-2): 45 nM

C=CC(=O)Nc1cc(Nc2nccc(-c3cn(C)c4ccccc34)n2)c(OC)cc1-n1cccc1CN(C)C [V]
IC50 [21]: 37 nM | IC50 [22]: 1.7 nM | selectivity versus EGFR^L858R/T790M over EGFR^WT kinase [22]: about 22 folds

COc1cc(OC)c(C=C2C(=O)Nc3cc(Cl)ccc32)c(OC)c1 [XIII]
IC50 [3]: 1660 nM | IC50 [23]: 549 nM

Cc1cc(-c2cccc(-c3c[nH]c4ccccc34)n2)c2ccccc2n1 [XII]
IC50 [5]: 5000 nM

COc1ccc2c(/C=C(\C)C(=O)c3cc(OC)c(OC)c([Se]C)c3)c[nH]c2c1 [XI]
IC50 [24]: 1300 nM

COc1cc(NC(=O)/C(C#N)=C/c2c[nH]c3ccccc23)cc(OC)c1OC [X]
IC50 [25]: 18000 nM
